In ChEMBL document CHEMBL1909046, “DrugMatrix in vitro pharmacology data”:

Columns and labels:
[1] = target: 5-hydroxytryptamine receptor 4 (Cavia porcellus, UniProt O70528); format: cell membranes, Dunkin-Hartley, Striatum, Membrane; note: in other assays of this panel Not Active means under 50% inhibition at 10 µM
[2] = target: Beta-3 adrenergic receptor (Homo sapiens, UniProt P13945); assay: DRUGMATRIX: Adrenergic beta3 radioligand binding (ligand: [125I] Cyanopindolol); format: cell membranes, HEK293, Membrane; conditions: hek293; Not Active = under 50% inhibition at 10 µM
Chain of Beta-3 adrenergic receptor (P13945 whole entry): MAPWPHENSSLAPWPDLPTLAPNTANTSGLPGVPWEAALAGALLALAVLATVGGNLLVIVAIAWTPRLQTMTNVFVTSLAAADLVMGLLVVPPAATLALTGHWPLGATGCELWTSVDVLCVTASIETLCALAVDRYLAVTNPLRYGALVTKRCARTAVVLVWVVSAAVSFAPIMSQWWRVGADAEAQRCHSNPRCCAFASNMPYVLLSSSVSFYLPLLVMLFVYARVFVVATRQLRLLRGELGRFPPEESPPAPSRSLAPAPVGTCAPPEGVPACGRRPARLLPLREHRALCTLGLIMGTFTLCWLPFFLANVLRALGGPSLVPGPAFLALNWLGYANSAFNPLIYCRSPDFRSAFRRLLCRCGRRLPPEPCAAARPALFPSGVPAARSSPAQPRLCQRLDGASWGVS

Cytochrome P450 2D6 = Cytochrome P450 2D6 (Homo sapiens, UniProt P10635); conditions: bti-tn-5b1-4; note: in other assays of this panel Not Active means under 50% inhibition at 10 µM
Chain of Cytochrome P450 2D6 (P10635 whole entry): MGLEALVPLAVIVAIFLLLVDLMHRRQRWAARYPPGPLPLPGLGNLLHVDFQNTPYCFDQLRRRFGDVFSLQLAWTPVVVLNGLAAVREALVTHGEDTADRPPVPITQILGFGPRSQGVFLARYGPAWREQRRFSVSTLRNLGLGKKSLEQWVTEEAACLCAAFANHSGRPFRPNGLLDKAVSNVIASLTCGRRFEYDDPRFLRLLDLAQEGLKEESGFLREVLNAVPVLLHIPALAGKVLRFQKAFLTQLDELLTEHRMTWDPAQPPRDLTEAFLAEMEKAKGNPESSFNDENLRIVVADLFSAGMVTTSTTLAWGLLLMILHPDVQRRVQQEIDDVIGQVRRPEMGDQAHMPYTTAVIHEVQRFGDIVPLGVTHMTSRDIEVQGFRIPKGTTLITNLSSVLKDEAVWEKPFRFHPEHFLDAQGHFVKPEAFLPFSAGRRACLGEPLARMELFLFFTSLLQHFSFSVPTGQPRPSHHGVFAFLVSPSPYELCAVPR

[3] = target: T1, Muscarinic acetylcholine receptor M2 (Homo sapiens, UniProt P08172); format: cell membranes, CHO-K1, Membrane; conditions: cho-k1; note: in other assays of this panel Not Active means under 50% inhibition at 10 µM
T1 sequence (P08172 whole entry): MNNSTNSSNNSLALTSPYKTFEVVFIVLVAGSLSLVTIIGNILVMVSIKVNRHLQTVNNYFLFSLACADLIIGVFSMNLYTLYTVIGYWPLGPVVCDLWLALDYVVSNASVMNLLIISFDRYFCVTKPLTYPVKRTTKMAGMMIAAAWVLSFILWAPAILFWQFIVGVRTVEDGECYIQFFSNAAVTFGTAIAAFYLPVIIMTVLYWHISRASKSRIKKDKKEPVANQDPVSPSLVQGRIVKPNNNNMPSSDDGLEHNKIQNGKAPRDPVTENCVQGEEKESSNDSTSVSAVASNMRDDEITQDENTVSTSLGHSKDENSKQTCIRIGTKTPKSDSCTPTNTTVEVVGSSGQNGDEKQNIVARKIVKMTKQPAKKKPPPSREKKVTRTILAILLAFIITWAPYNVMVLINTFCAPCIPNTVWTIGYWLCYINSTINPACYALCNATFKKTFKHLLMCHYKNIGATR

[4] = target: Mitogen-activated protein kinase 3 (Homo sapiens, UniProt P27361); assay: DRUGMATRIX: Protein Serine/Threonine Kinase, ERK1 enzyme inhibition (substrate: Myelin Basic Protein); parameters: species or system Escherichia coli; conditions: Not Active = under 50% inhibition at 10 µM
Chain of Mitogen-activated protein kinase 3 (P27361 whole entry): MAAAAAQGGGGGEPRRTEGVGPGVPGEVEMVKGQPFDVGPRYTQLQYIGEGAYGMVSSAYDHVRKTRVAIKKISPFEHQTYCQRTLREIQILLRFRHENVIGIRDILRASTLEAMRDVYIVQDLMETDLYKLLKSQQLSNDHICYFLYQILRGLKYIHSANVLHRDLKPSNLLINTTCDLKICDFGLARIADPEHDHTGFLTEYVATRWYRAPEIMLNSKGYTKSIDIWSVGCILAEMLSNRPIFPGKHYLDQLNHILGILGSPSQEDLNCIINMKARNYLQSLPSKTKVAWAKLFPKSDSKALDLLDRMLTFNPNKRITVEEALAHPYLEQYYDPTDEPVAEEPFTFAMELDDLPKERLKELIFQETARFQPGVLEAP

[5] = DRUGMATRIX: Atrial Natriuretic Factor (ANF) radioligand binding (ligand: [125I] ANF (rat)); format: cell membranes, Cavia porcellus, Dunkin-Hartley, Adrenal gland, Membrane; conditions: Not Active = under 50% inhibition at 10 µM

Chain of 5-hydroxytryptamine receptor 4 (O70528 whole entry): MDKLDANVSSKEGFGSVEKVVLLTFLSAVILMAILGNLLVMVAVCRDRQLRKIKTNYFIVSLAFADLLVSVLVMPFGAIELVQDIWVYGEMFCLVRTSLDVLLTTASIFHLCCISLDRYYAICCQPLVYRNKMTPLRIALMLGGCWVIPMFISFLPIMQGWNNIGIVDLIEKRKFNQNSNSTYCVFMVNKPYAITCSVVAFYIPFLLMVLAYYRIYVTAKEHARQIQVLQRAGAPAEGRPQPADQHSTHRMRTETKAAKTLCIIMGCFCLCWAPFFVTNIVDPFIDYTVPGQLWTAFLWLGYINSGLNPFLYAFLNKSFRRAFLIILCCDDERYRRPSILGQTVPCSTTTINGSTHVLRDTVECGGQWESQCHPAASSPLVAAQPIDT

CC(C)(C#N)c1cc(Cn2cncn2)cc(C(C)(C)C#N)c1 [ANASTROZOLE]
Not Active: IC50 [1] | IC50 [2] | IC50 (Cytochrome P450 2D6) | Ki (Cytochrome P450 2D6) | IC50 [3] | IC50 [4] | IC50 [5] | Ki [5]

O=C1c2ccccc2C(=O)C1c1ccccc1 [PHENINDIONE]
Not Active: IC50 [1] | IC50 [2] | IC50 (Cytochrome P450 2D6) | Ki (Cytochrome P450 2D6) | IC50 [3] | IC50 [4] | IC50 [5] | Ki [5]

NC(=O)NC(=O)Cc1ccccc1 [PHENACEMIDE]
Not Active: IC50 [1] | IC50 [2] | IC50 (Cytochrome P450 2D6) | Ki (Cytochrome P450 2D6) | IC50 [3] | IC50 [4] | IC50 [5] | Ki [5]

O=C(NCCN1CCOCC1)c1ccc(Cl)cc1 [MOCLOBEMIDE]
Not Active: IC50 [1] | IC50 [2] | IC50 (Cytochrome P450 2D6) | Ki (Cytochrome P450 2D6) | IC50 [3] | IC50 [4] | IC50 [5] | Ki [5]

OC[C@H]1O[C@@H]2O[C@H]3[C@H](O)[C@@H](O)[C@@H](O[C@H]4[C@H](O)[C@@H](O)[C@@H](O[C@H]5[C@H](O)[C@@H](O)[C@@H](O[C@H]6[C@H](O)[C@@H](O)[C@@H](O[C@H]7[C@H](O)[C@@H](O)[C@@H](O[C@H]1[C@H](O)[C@H]2O)O[C@@H]7CO)O[C@@H]6CO)O[C@@H]5CO)O[C@@H]4CO)O[C@@H]3CO [ALFADEX]
Not Active: IC50 [1] | IC50 [2] | IC50 (Cytochrome P450 2D6) | Ki (Cytochrome P450 2D6) | IC50 [3] | IC50 [4] | IC50 [5] | Ki [5]

ClC1=C(Cl)[C@]2(Cl)[C@@H]3[C@@H]4C[C@@H]([C@H]5O[C@@H]45)[C@@H]3[C@@]1(Cl)C2(Cl)Cl [DIELDRIN]
Not Active: IC50 [1] | IC50 [2] | IC50 (Cytochrome P450 2D6) | Ki (Cytochrome P450 2D6) | IC50 [3] | IC50 [4] | IC50 [5] | Ki [5]

O=c1[nH]c2ccccc2c2ccccc12
Not Active: IC50 [1] | IC50 [2] | IC50 (Cytochrome P450 2D6) | Ki (Cytochrome P450 2D6) | IC50 [3] | IC50 [4] | IC50 [5] | Ki [5]

CCC1(c2ccccc2)C(=O)NC(=O)NC1=O [PHENOBARBITAL]
Not Active: IC50 [1] | IC50 [2] | IC50 (Cytochrome P450 2D6) | Ki (Cytochrome P450 2D6) | IC50 [3] | IC50 [4] | IC50 [5] | Ki [5]

Nc1ccc(C(=O)O)c(O)c1 [AMINOSALICYLIC ACID]
Not Active: IC50 [1] | IC50 [2] | IC50 (Cytochrome P450 2D6) | Ki (Cytochrome P450 2D6) | IC50 [3] | IC50 [4] | IC50 [5] | Ki [5]
